# Data from patent US8309570B2, “Treatment of central neuropathic pain” (Analgesic Neuropharmaceuticals, LLC, priority 2001, dated 2012).
# “Also recorded” adds a separate entry of the source. Structures can show the parent of a compound that is named as a salt.
# What was measured:
# [1] = system: SCI pain; conditions: chronic oral agents; cited from earlier work
# [2] = system: SCI pain; conditions: acute parenteral administration; cited from earlier work
# [3] = system: central neuropathic pain following traumatic spinal cord injury; experiment: Randomized, double-blind, double-dummy, 2x2 factorial crossover trial: spontaneous pain, pain relief, patient satisfaction; format: in vivo, human; conditions: for patients choosing treatment as best pain relief / patients choosing treatment as best, balance between analgesia and side effects: at completion of the study, p=0.04; for SCI (spontaneous) pain compared to placebo: chronic oral administration; for overall patient satisfaction at the end of each treatment period, compared to placebo: dextromethorphan p<0.001, gabapentin p<0.01, combination p<0.001; for patients with at least moderate or better pain relief: of 18 patients, end of 5-week treatment
# Protocol: Central neuropathic pain following traumatic spinal cord injury (SCI) may be severe and refractory to standard analgesics. Pharmacologic agents that target distinct pathophysiological pain mechanisms theoretically could provide pain relief for these patients. The analgesic efficacy of dextromethorphan and gabapentin in combination, dextromethorphan alone, gabapentin alone, and placebo, in patients with pain following SCI was evaluated in a randomized, double-blind, double-dummy, 2×2 factorial, Latin Square crossover trial, we evaluated the four treatments. Each treatment was titrated over 4 weeks and maintained at the individual's […] until the end of Week 5. Each treatment period was followed by a 1-week washout period or until pain returned to baseline. Primary efficacy measure was mean pain intensity during the 5-week treatment period, measured by the 20-point Gracely pain intensity scale.
# Patients with 1) central neuropathic pain secondary to traumatic SCI in persons >18 years of age, 2) moderate pain for at least 50% of the day for at least 3 months, 3) concurrent use of no more than two analgesics at a stable dose (e.g. tricyclic antidepressants, anticonvulsants, nonsteroidal antiinflammatory drugs, or limited use of low-potency short-acting opioids), and 4) 100% compliance in rating their overall pain intensity 5-times daily in a diary for 1 week, were recruited nationwide between July 1997 and April 1999 using written announcements and by physician referrals.
# (§1) All patients were followed as outpatients. Patients were randomly assigned to a sequence of the 4 treatments. Each of the 4 treatment periods consisted of 5 weeks. Each treatment period was separated by a 1-week washout period, with the requirement that pain return to baseline level. Dextromethorphan (Endo Inc., Neptune, N.J.; and its externally identical placebo) and gabapentin (Neurontin, Pfizer, Inc., Ann Arbor, Mich.; and its externally identical placebo) were dispensed using a double-dummy design; thus, the dextromethorphan:gabapentin dose-ratio was maintained at 1:5. Subjects started at 120 mg/day of dextromethorphan vs. placebo and 600 mg/day of gabapentin vs. placebo, and titrated according to a fixed schedule until they reached the ceiling doses equivalent to 600 mg/day of dextromethorphan or 3000 mg/day of gabapentin or their maximally tolerated dose (the dose just causing side effects, MTD). The titration regimen and the number of capsules per dose for each treatment were the same in each treatment group, in order to maintain double blinded conditions.
# The primary endpoint was mean spontaneous pain intensity averaged weekly, from the start of study drug until the end of Week 5 for each treatment period and overall for the 5 weeks, assessed in a diary in which pain ratings were recorded 5-times daily, and evaluated with the 20-point Gracely pain scale based on 13 words (“faint” to “extremely intense”) (Gracely R H, et al. Pain 5:5-18(1978)).
# Secondary endpoints were assessed at a clinic visit on the final day of each treatment period, and included: 1) Global Pain Intensity (6-item categorical scale); 2) Global Pain Relief (6-item categorical scale); 3) pain intensity (Gracely Scale) of individual pain descriptors (burning pain; aching pain; tingling pain; cold pain; brief lancinating pain; deep stabbing pain; constricting pain; and touch-evoked pain (allodynia)); 4) areas of evoked pain: a) allodynia and b) pinprick-evoked hyperalgesia; 5) quality of life, assessed using the Duke Health Profile (Parkerson, G R, et al. Medical Care 28:1056-1069(1990)). 6) Patient Satisfaction (5-item categorical scale); 7) patients' assessment of best treatment. Allodynia was mapped by stroking the skin with the distal 5 mm of the corner of a 2×2 gauze sponge at standard pressure, at a rate of 1 cm/sec. Pinprick-evoked hyperalgesia was mapped using a standard safety pin that was pressed against the skin until dimpling was visible. […]
# [4] = system: central neuropathic pain following traumatic spinal cord injury; experiment: Crossover trial: evoked pain (touch-evoked allodynia, pinprick-evoked hyperalgesia); format: in vivo, human; conditions: for intensity of touch-evoked allodynia, compared to placebo: 14 subjects with allodynia, dextromethorphan p=0.03, gabapentin p=0.01, combination p=0.001; for mean area of allodynia after treatment / mean area of allodynia, reduction from baseline: baseline 362±496 cm^2; for mean area of pinprick hyperalgesia after treatment / mean area of pinprick hyperalgesia, reduction from baseline: baseline 371±523 cm^2; for areas of pinprick hyperalgesia, difference: combination p=0.03, dextromethorphan p=0.02, gabapentin p=0.03
# Protocol: (§2) Secondary endpoints were assessed at a clinic visit on the final day of each treatment period, and included: 1) Global Pain Intensity (6-item categorical scale); 2) Global Pain Relief (6-item categorical scale); 3) pain intensity (Gracely Scale) of individual pain descriptors (burning pain; aching pain; tingling pain; cold pain; brief lancinating pain; deep stabbing pain; constricting pain; and touch-evoked pain (allodynia)); 4) areas of evoked pain: a) allodynia and b) pinprick-evoked hyperalgesia; 5) quality of life, assessed using the Duke Health Profile (Parkerson, G R, et al. Medical Care 28:1056-1069(1990)). 6) Patient Satisfaction (5-item categorical scale); 7) patients' assessment of best treatment. Allodynia was mapped by stroking the skin with the distal 5 mm of the corner of a 2×2 gauze sponge at standard pressure, at a rate of 1 cm/sec. Pinprick-evoked hyperalgesia was mapped using a standard safety pin that was pressed against the skin until dimpling was visible. Ambient temperature was maintained at 24 degrees centigrade. All mapping took place within a 30-minute period. The delineated areas of evoked pain were recorded using photographs of 4 views (anterior/posterior/right lateral/left lateral), which were scanned, and the areas of each of the 4 views were summed to determine the composite area.
# [5] = system: central neuropathic pain following traumatic spinal cord injury; experiment: Crossover trial: quality of life, Duke Health Profile; format: in vivo, human; conditions: for Pain domain, compared to placebo: combination p=0.002, dextromethorphan p=0.001, gabapentin p=0.03
# Protocol: as §2
# [6] = Crossover trial: adverse effects; format: in vivo, human; conditions: for confusion, proportion of patients / dizziness, proportion of patients / euphoria, proportion of patients / fatigue, proportion of patients / somnolence, proportion of patients / speech difficulty, proportion of patients / urinary incontinence, proportion of patients / urinary tract infection, proportion of patients: human, in vivo, oral, 5 weeks
# Protocol: Presence and intensity (5-item categorical scale) of adverse effects were assessed continuously using an open question.
# [7] = Crossover trial: titration to maximally tolerated dose (MTD); format: in vivo, human; conditions: drug alone; for mean dose during Week 5: after 4 weeks of titration to MTD; for maximum daily dose administered: titration to MTD
# From the text: as §1
# [8] = system: neuropathic pain; conditions: cited from earlier work
# [9] = system: spinally injured rats; conditions: repeated doses; cited from earlier work
Structure (SMILES),results of randomized controlled trials in SCI pain [1],patients choosing treatment as best pain relief [3],"patients choosing treatment as best, balance between analgesia and side effects [3]","overall patient satisfaction at the end of each treatment period, compared to placebo [3]",patients with at least moderate or better pain relief [3],"intensity of touch-evoked allodynia, compared to placebo [4]",mean area of allodynia after treatment [4],"mean area of allodynia, reduction from baseline [4]",mean area of pinprick hyperalgesia after treatment [4],"mean area of pinprick hyperalgesia, reduction from baseline [4]","areas of pinprick hyperalgesia, difference [4]","Pain domain, compared to placebo [5]","confusion, proportion of patients [6]","dizziness, proportion of patients [6]","euphoria, proportion of patients [6]","fatigue, proportion of patients [6]","somnolence, proportion of patients [6]","speech difficulty, proportion of patients [6]","urinary incontinence, proportion of patients [6]","urinary tract infection, proportion of patients [6]",further results
Cc1cccc(C)c1OCC(C)N (centres unmarked) [mexiletine],negative,–,–,–,–,–,–,–,–,–,–,–,–,–,–,–,–,–,–,–,–
CNC1(c2ccccc2Cl)CCCCC1=O (centres unmarked) [ketamine],–,–,–,–,–,–,–,–,–,–,–,–,–,–,–,–,–,–,–,–,spontaneous and evoked SCI pain [2]: reduced both spontaneous and evoked SCI pain
O=c1n(CCCN2CCN(c3cccc(Cl)c3)CC2)nc2ccccn12 [trazodone],negative,–,–,–,–,–,–,–,–,–,–,–,–,–,–,–,–,–,–,–,–
"COc1ccc2c(c1)[C@]13CCCC[C@@H]1[C@H](C2)N(C)CC3 [dextromethorphan, dextromethorphan hydrobromide]",–,33.3%,17.5%,significantly better,50%,significantly reduced,183±321 cm^2,49%,122±287 cm^2,67%,significant difference,significantly better than placebo,33%,67%,24%,52%,62%,10%,5%,38%,"SCI (spontaneous) pain compared to placebo ([3]; hydrobromide): significant reduction; also recorded: superior to placebo; intensity of burning pain, compared to placebo ([3]; combination p=0.005, dextromethorphan p=0.001): significant relief; brief paroxysms of lancinating pain, compared to placebo ([3]; combination p=0.03, dextromethorphan p=0.003): significant relief; Physical Health measure, compared to placebo ([5]; combination p=0.001, dextromethorphan p=0.02): significantly better than placebo; General Health measure, compared to placebo ([5]; combination p=0.01, dextromethorphan p=0.04): significantly better than placebo; proportion of patients with cognitive side effects, compared to either placebo or gabapentin ([6]; p<0.002): significantly larger proportion; proportion of patients with other side effects, compared to placebo ([6]; p=0.01): significantly larger proportion; mean dose during Week 5 [7]: 416 ± 34 mg/day; mean daily dose [7]: 416 mg; maximum daily dose administered [7]: 470 ± 29 mg/day; analgesic effect in patients with neuropathic pain ([8]; dextromethorphan alone at 81 mg/day): inability; effect in patients with peripheral neuropathic pain ([8]; human, in vivo): marginal effect"
NCC1(CC(=O)O)CCCCC1 [gabapentin],–,27.8%,23.5%,significantly better,39%,significantly reduced,106±231 cm^2,71%,152±332 cm^2,59%,significant difference,significantly better than placebo,22%,22%,6%,33%,33%,0%,11%,22%,"SCI (spontaneous) pain compared to placebo [3]: significant reduction; also recorded: superior to placebo; area of allodynia, compared to placebo ([4]; combination p=0.05, gabapentin p=0.02): significant difference from placebo; mean dose during Week 5 [7]: 2657 ± 155 mg/day; mean daily dose [7]: 2657 mg; maximum daily dose administered [7]: 2717 ± 148 mg/day; chronic hypersensitivity [9]: alleviated chronic hypersensitivity"
